Drawing on patent publication US20220233566A1, “NOVEL CARBONATE COMPOUND HAVING PYRROLOPYRIMIDINE SKELETON OR PHARMACEUTICALLY ACCEPTABLE SALT THEREOF” (TAIHO PHARMACEUTICAL CO., LTD., priority 2019, published 2022), this text covers IC50 for 1 compound.

What all share (test): Growth suppression activity to human tumor cell line (Evaluation 2)
Holding throughout (format): cell-based

For test [1], the system named is RKO. The settings on record: 72 h, Human colorectal cancer, 3 days. How it is done:
(§1) Human tumor cell lines different in type were suspended in mediums, seeded in individual wells of a multi-well plate and cultured. On the day after initiation of culture, serially diluted solutions of a compound were added. Culture was carried out for further 3 days. Cells were counted by a CellTiter-Glo (manufactured by Promega KK) in accordance with the protocol recommended by Promega KK. Cell viability was calculated in accordance with the equation shown below and the concentration (IC50 (nM)) of the compound at which 50% of cell growth is inhibited was obtained.
(§2) T: Intensity of light emitted from a well containing a compound
(§3) C: Intensity of light emitted from a well containing no compound

In test [2] the test system is H2122. The settings on record: NCI-H2122, 72 h, Human lung cancer, H2122, 3 days. As to the method:
as §1, §2, §3

The test system of test [3] is HCC827. The settings on record: Human lung cancer, HCC827, 3 days. How it is done: as §1, §2, §3
The test system of test [4] is H1650. The following applies: NCI-H1650, 72 h, Human lung cancer, H1650, 3 days. How it is done:
as §1, §2, §3

In general, IC50 refers to the concentration needed to halve the response being measured. High values mean weaker potency, low ones greater potency. As to `Nc1ncnc2c1c(Br)cn2[C@@H]1O[C@H](CO)[C@@H](O)[C@@H]1F` [Comparative Example 1, (2R,3R,4S,5R)-5-(4-amino-5-bromo-7H-pyrrolo[2,3-d]pyrimidin-7-yl)-4-fluoro-2-(hydroxymethyl) tetrahydrofuran-3-ol], the IC50 in test [1] came out at 0.031 µM; in test [2] it was 0.009 µM; in test [3] (Homo sapiens, HCC827, 72 h), 0.228 µM; in test [3], 0.176 µM; in test [4], 0.008 µM.
